According to patent US7951359B2, “Compositions and methods for therapy or prevention of chemotherapy-induced neuropathy” (Merck Serono SA, priority 2004, dated 2011):

Experiments:
[1] = tested on: cisplatin induced neuropathy; experiment: Morphometric analysis of sciatic nerve in cisplatin-treated rats, co-administration; assay type: in vivo, rat
Procedure: The total number of fibers per nerve section was obtained from 3 randomized slices of each sample. The counting was performed on 2 selected fields per slice.

[2] = tested on: human WiDr colon carcinoma; experiment: Human WiDr colon carcinoma tumor growth in nude mice; assay type: in vivo, mouse
Procedure: The following experiment was carried out to check potential drug interaction between IL-6 and the chemotherapeutic agent in vivo.
Balb/c nude mice are used since have proven to be susceptible host systems for the growth of human WiDr colon carcinoma tumor cells. WiDr cells were provided by the bank of the National Cancer Research Institute Genova-Italy. Cell species: human, tissue: colon, tumor: colon adenocarcinoma, accession number: ICLC HTL00003.
Tumor size was recorded twice a week for 4 weeks starting 4 days after cell inoculation.
Each Balb/c nude mice (about 20-25 g body weight) was inoculated subcutaneously (s.c.) with 10^7+5% WiDr cells/mouse (0.2 mL/mouse of cell suspension) on day 1.
A group administered with 0.02% mouse albumin (Sigma) in 40 mM phosphate buffer at pH=7.0, s.c., a group administered with 3.5 mg/kg Cis-platinum, i.p. (in 0.9% NaCl sterile solution for injection), three groups of rats each treated with IL-6 (in 0.02% mouse albumin in 40 mM phosphate buffer at pH=7.0), s.c. at 3, 10 or 30 μg/kg and three groups of rats treated with IL-6 either at 3, 10 or 30 μg/kg IL-6, s.c. in combination with cis-platinum 3.5 mg/kg, i.p.
IL-6 at […] was given s.c. daily (10 mL/kg) from day 4 up to day 18. […] Tumor size was recorded twice a week for 4 weeks starting 4 days after cell inoculation. […]

[3] = Body weight in cisplatin induced neuropathy rat model; assay type: in vivo
Procedure: (c) 4 treated-cisplatin-intoxicated groups (n=10) consisting of animals receiving daily SC injections of IL-6 compound at 4 different doses: 0.3, 1, 3, 10 μg/kg; and (d) a 4-methylcatechol (4-MC)-treated, cisplatin-intoxicated group (n=10) receiving a daily IP injection of 4-MC at 10 μg/kg. […] The drug was diluted in 0.9% sterile aqueous solution of sodium chloride.

[4] = tested on: cisplatin induced neuropathy; assay type: in vivo, rat
Procedure: The drug was diluted in 0.9% sterile aqueous solution of sodium chloride.
4-MC was diluted in 0.9% sterile aqueous solution of sodium chloride and injected daily via IP route from day 23 to the end of the experiment.
Electrophysiological tests described in Example 17, were carried out in parallel to the behavioral tests (described in the preceding example) in cisplatin-established neuropathy model. The objective was to assess the therapeutic effect of IL-6 in cisplatin-induced loss of fiber/nerve function.
Electrophysiological recordings were performed using a Neuromatic 2000M electromyograph (EMG) (Dantec, Les Ulis, France). Rats were anaesthetized by IP injection of 60 mg/kg ketamine chlorhydrate (Imalgene 500®, Rhône Merieux, Lyon, France). The normal body temperature was maintained around […] with a heating lamp and verified using a contact thermometer (Quick, Bioblock Scientific, Illkirch, France) placed on the tail surface.
(§1) Sensitive nerve conduction velocity (SNCV) was also recorded. The tail skin electrodes were placed as follows: a reference needle inserted at the base of the tail and an anode needle placed 30 mm away from the reference needle toward the extremity of the tail. A ground needle electrode was inserted between the anode and reference needles. The caudal nerve was stimulated with a series of 20 pulses (for 0.2 ms) at an intensity of 12.8 mA. The velocity was expressed in m/s.
H-wave reflex was recorded in the hind footpad muscle after stimulation of the sciatic nerve. A reference electrode and a ground needle were placed on the lower back of the rat. The sciatic nerve was stimulated with a single 0.2 ms pulse at supramaximal intensity. The amplitude (mV) of H wave and the proportion of animal lacking H wave response were the parameters studied.

[5] = patients with myelodysplastic syndromes and trombocytopenia; cited from earlier work
[6] = tested on: vincristine induced neuropathy; experiment: Hot plate test in vincristine-treated rats; assay type: in vivo, rat
Procedure: The rat was placed inside a glass cylinder of 17 cm height and 21 cm diameter on a heating-plate maintained at 52° C. (Medite OTS 40, Microm, Francheville, Rhône, France). The animal behavior was observed, particularly the licking of a foot and the adjusted leap. The latency before licking a foot or before jumping to escape the heat (adjusted leap) was recorded. The time needed to feel the thermal pain is related to the thermal sensitivity and tends to increase when thermal sensitivity is altered.

taxol induced neuropathy = experiment: Electrophysiological monitoring in taxol induced neuropathy, co-administration; assay type: in vivo, rat
Procedure: The aim of the following experiment was to investigate the potential neuroprotective effect of IL6 in an additional model of chemotherapeutic induced neuropathy mediated by taxol. The potential preventive effect of IL-6 co-administration was tested. Administration of IL-6 was initiated together with taxol administration. The doses of IL-6 of 3 and 10 μg/kg were administered daily or in the case 10 μg/kg also only 3 times per week.
Females 10 weeks old aged Dark Agouti rats were used, 12 animals per group were included as following
The taxol was diluted in a solution of cremophor/ethanol/dextrose 5% and administered twice a week during 4 weeks.
4-MC and test compounds treatment was initiated the first day of intoxication and was stopped at the end of the study.
The study was performed on 8 weeks (1 week for the baseline, 4 weeks for the taxol intoxication and 3 weeks of recovery).
Control, taxol, and taxol-IL-6 co-administered group of rats at the indicated doses were subjected to electrophysiological monitoring to assess the effect of IL-6 in taxol-induced loss of fiber/nerve function.
as §1
H-wave reflex was recorded in the hind footpad muscle after stimulation of the sciatic nerve. […] The sciatic nerve was stimulated with a single 0.2 ms pulse at supramaximal intensity. The amplitude (mV) of H wave and the proportion of animal lacking H wave response were the parameters studied.

[7] = tested on: vincristine induced neuropathy; experiment: Hindpaw skin biopsy, density of dermal nerve fibers in vincristine-treated rats; assay type: in vivo, rat; conditions: IL-6 10 μg/kg
Procedure: A 5-10 mm diameter area of skin was punch-biopsied from the hindpaw. Skin samples were immediately fixed overnight in paraformaldehyde at 4° C., incubated (overnight) in 30% sucrose in 0.1 M PBS for cryoprotection, embedded in OCT and frozen at −80° C. until cryocut. 50 μm-thick cryosections were then cut vertical to the skin surface with a cryostat. Free-floating sections were incubated for 7 days in a bath of rabbit anti-protein gene product 9.5 (1:10000; Ultraclone, Isle of Man, UK) at 4° C. The sections were then processed to reveal immunoreactivity according to the ABC peroxidase method. Briefly, they were incubated in for 1 hr with biotinylated anti-goat antibody (1:200), then 30 min in the avidin biotinylated complex at room temperature. Peroxidase activity was visualized using DAB system. Sections were then counterstained with eosin or hematoxylin. Sections were dehydrated, cleared with bioclear and mounted on eukitt. The number of dermal nerves of 3 microscope fields was counted manually under 40 magnification view.

For N.N.[Cl][Pt][Cl] [cisplatin, Cis-dichlorodiamine platinum], the fiber diameter ([1]; cisplatin alone) was “significantly decreases fibers diameter”, the “percent of myelinated fibers versus control” value ([1]; cisplatin alone) was “significant reduction in the percent of myelinated fibers” and the “percentage of degenerated fibers versus control” value ([1]; cisplatin alone) was “two-folds higher”. For the same compound, the WiDr tumor growth ([2]; cisplatin 3.5 mg/kg i.p. days 4, 8, 12, 18, significant on days 18, 22, 25) was “reduce tumor growth”, the “body weight lost at completion of cisplatin administration” value ([3]; cisplatin 2 mg/kg IP twice a week, 4 weeks, vehicle-treated) was “about 10%” and the “SNCV versus untreated control” value ([4]; rat, in vivo) was “significantly slower”. The “loss in H wave signal amplitude” value ([4]; rat, in vivo) was “about 70%”.

For “IL-6: Recombinant human IL-6 produced in genetically engineered Chinese Hamster Ovary (CHO) cells”, the “loss of myelin wall by cisplatin” value ([1]; IL-6 1, 3, 10 μg/kg) was “significantly protected fibers against the loss of myelin wall”, the “percentage of degenerated fibers by cisplatin” value ([1]; IL-6 1, 3, 10 μg/kg) was “reduce the percentage of degenerated fibers” and the “cisplatin-induced axon diameter decrease” value ([1]; IL-6, statistically significant at 1-10 μg/kg) was “prevents/reduces cisplatin-induced axon diameter decrease”. The “fiber diameter decrease by cisplatin” value ([1]; IL-6 all doses tested, statistically significant at 1-10 μg/kg) was “prevents/reduce the diameter decrease”, the “myelinated fibers in cisplatin treated rats” value ([1]; IL-6 co-administration) was “increased myelinated fibers” and the maximum dose tolerated [5] was 3.75 µg/kg/day. For the same compound, the “prevention of vincristine-induced nociception loss (hot plate)” value ([6]; IL-6 0.3, 1, 3, 10 μg/kg SC daily, 5 weeks) was “significantly prevented nociception”, the “protection from vincristine-induced nociception loss compared with 4-MC” value ([6]; IL-6 0.3-10 μg/kg SC vs 4-MC 10 μg/kg IP) was “confers better protection that 4-MC” and the WiDr tumor growth ([2]; IL-6 alone 3, 10 and 30 μg/kg s.c. daily day 4 to 18) was “did not significantly affect the growth of the tumor”. The “animal growth under cisplatin with IL-6” value ([3]; IL-6 0.3, 1, 3, 10 μg/kg SC daily with cisplatin) was “marked inhibition of animal growth, regardless of IL-6 treatments undertaken”, the “SNCV in cisplatin-treated animals” value ([4]; IL-6 3 μg/kg, after 1 week of treatment, p≦0.01) was “improved the SNCV” and the “loss of H wave amplitude” value ([4]; IL-6 3 and 10 μg/kg SC daily from day 23, p≦0.05) was “reversed the loss of H wave amplitude”. For the same compound, the “H wave amplitude loss recovered” value ([4]; IL-6, 1 week after initiation of treatment) was “about 50%”, the “H wave amplitude recovery” value ([4]; IL-6, 2 weeks of treatment) was “full recovery” and the “curing/ameliorating loss of fiber/nerve function compared with 4-MC” value ([4]; IL-6 vs 4-MC) was “more efficient than 4-MC”. The “H wave latency under taxol” value (taxol induced neuropathy; IL-6 3 or 10 μg/kg daily or 10 μg/kg 3 times per week, sc) was “prevent/reduce H wave latency”, the “alterations in SNCV by taxol” value (taxol induced neuropathy; IL-6 3 or 10 μg/kg daily or 3 times per week) was “prevent alterations in SNCV” and the “reduction in H wave amplitude by taxol” value (taxol induced neuropathy; IL-6 at all the dosages tested, throughout the experiment) was “significantly prevented the reduction in H wave amplitude”. For the same compound, the “preventive effects compared with 4-MC co-administration” value (taxol induced neuropathy; IL-6 vs 4-MC) was “more significant than those of 4-MC co-administration” and the “dermal fiber loss by vincristine” value [7] was “fully prevented”.
